Experimental data taken from patent US6884813B2, “Antimicrobial dihydrothiazine and dihydrothiopyran oxazolidinones” (Pharmacia & Upjohn Company, priority 2002, dated 2005).
Converted amounts (≈) assume the structure as drawn.

Key:
[1] = tested on: SPNE 9912; test: Minimum inhibitory concentration (MIC) by agar dilution; assay type: cell-based; settings: Streptococcus pneumoniae, lowest concentration of drug that inhibits visible growth of the organism, strain SPNE 9912, read-out: Antibacterial Activity, Minimum Inhibitory Concentration (MIC μg/mL) SPNE 9912
Description: Compounds of this invention have useful activity against a variety of organisms. The in vitro activity of compounds of this invention can be assessed by standard testing procedures such as the determination of minimum inhibitory concentration (MIC) by agar dilution as described in “Approved Standard. Methods for Dilution Antimicrobial Susceptibility Tests for Bacteria That Grow Aerobically”, 3rd. ed., published 1993 by the National Committee for Clinical Laboratory Standards, Villanova, Pa., USA. Minimum inhibitory concentration (MIC) refers to lowest concentration of drug (μg/mL) that inhibits visible growth of the organism. “- -” refers to the activity data is not available.

Structure (SMILES)	melting point [°C]	MIC [1] [µg/mL]
O=C1O[C@@H](CNC(=S)C(F)F)CN1c1ccc(C2C=CS(=O)(=O)CC2)cc1 (stereo partly drawn) [Example 17, [[(5S)-3-[4-(3,4-dihydro-1,1-dioxido-2H-thiopyran-4-yl)phenyl]-2-oxo-5-oxazolidinyl]methyl]-2,2-difluoroethanethioamide]	139 to 140	0.25 (≈ 0.6 µM)
O=C1O[C@@H](CNC(=S)C(F)F)CN1c1cc(F)c(C2C=CS(=O)(=O)CC2)c(F)c1 (stereo partly drawn) [Example 32, N-({(5S)-3-[4-(1,1-dioxido-3,4-dihydro-2H-thiopyran-4-yl)-3,5-difluorophenyl]-2-oxo-1,3-oxazolidin-5-yl}methyl)-2,2-difluoroethanethioamide]		0.5 (≈ 1.11 µM)
O=C(NC[C@H]1CN(c2ccc(C3C=CS(=O)(=O)CC3)cc2)C(=O)O1)C(Cl)Cl (stereo partly drawn) [Example 16, 2,2-dichloro-N-[[(5S)-3-[4-(3,4-dihydro-1,1-dioxido-2H-thiopyran-4-yl)phenyl]-2-oxo-5-oxazolidinyl]methyl]acetamide]	159 to 161	0.25 (≈ 0.577 µM)
O=C(NC[C@H]1CN(c2ccc(N3C=CS(=O)(=O)CC3)c(F)c2)C(=O)O1)C(Cl)Cl [Example 22, 2,2-dichloro-N-[[(5S)-3-[4-(2,3-dihydro-1,1-dioxido-4H-1,4-thiazin-4-yl)-3-fluorophenyl]-2-oxo-5-oxazolidinyl]methyl]acetamide]		0.25 (≈ 0.553 µM)
O=C1O[C@@H](CNC(=S)C(F)F)CN1c1ccc(N2C=CS(=O)(=O)CC2)cc1 [Example 24, N-[[(5S)-3-[4-(2,3-dihydro-1,1-dioxido-4H-1,4-thiazin-4-yl)phenyl]-2-oxo-5-oxazolidinyl]methyl]-2,2-difluoroethanethioamide]		0.5 (≈ 1.2 µM)
CC(=O)NC[C@H]1CN(c2cc(F)c(N3C=CS(=O)(=O)CC3)c(F)c2)C(=O)O1 [Example 8, N-[[(5S)-3-[4-(2,3-dihydro-1,1-dioxido-4H-1,4-thiazin-4-yl)-3,5-difluorophenyl]-2-oxo-5-oxazolidinyl]methyl]acetamide]		0.5 (≈ 1.25 µM)
O=C(NC[C@H]1CN(c2cc(F)c(C3C=CS(=O)(=O)CC3)c(F)c2)C(=O)O1)C(Cl)Cl (stereo partly drawn) [Example 31, 2,2-dichloro-N-({(5S)-3-[4-(1,1-dioxido-3,4-dihydro-2H-thiopyran-4-yl)-3,5-difluorophenyl]-2-oxo-1,3-oxazolidin-5-yl}methyl)acetamide]		0.5 (≈ 1.07 µM)
CC(=O)NC[C@H]1CN(c2ccc(N3C=CS(=O)(=O)CC3)c(F)c2)C(=O)O1 [Example 7, N-[[(5S)-3-[4-(2,3-dihydro-1,1-dioxido-4H-1,4-thiazin-4-yl)-3-fluorophenyl]-2-oxo-5-oxazolidinyl]methyl]acetamide]	193 to 194	0.5 (≈ 1.3 µM)
CC(=O)NC[C@H]1CN(c2ccc(C3C=C[S+]([O-])CC3)c(F)c2)C(=O)O1 (stereo partly drawn) [Example 4, N-[[(5S)-3-[4-(3,4-dihydro-1-oxido-2H-thiopyran-4-yl)-3-fluorophenyl]-2-oxo-5-oxazolidinyl]methyl]acetamide]		1 (≈ 2.73 µM)
O=C(NC[C@H]1CN(c2ccc(C3C=CS(=O)(=O)CC3)c(F)c2)C(=O)O1)C(Cl)Cl (stereo partly drawn) [Example 11, 2,2-dichloro-N-[[(5S)-3-[4-(3,4-dihydro-1,1-dioxido-2H-thiopyran-4-yl)-3-fluorophenyl]-2-oxo-5-oxazolidinyl]methyl]acetamide]	148 to 150	0.5 (≈ 1.11 µM)
CCC(=O)NC[C@H]1CN(c2ccc(C3C=CS(=O)(=O)CC3)cc2)C(=O)O1 (stereo partly drawn) [Example 18, N-[[(5S)-3-[4-(3,4-dihydro-1,1-dioxido-2H-thiopyran-4-yl)phenyl]-2-oxo-5-oxazolidinyl]methyl]propionamide]	144 to 147	1 (≈ 2.64 µM)
O=C(NC[C@H]1CN(c2cc(F)c(N3C=CS(=O)(=O)CC3)c(F)c2)C(=O)O1)C(F)F [Example 29, N-[[(5S)-3-[4-(2,3-dihydro-1,1-dioxido-4H-1,4-thiazin-4-yl)-3,5-difluorophenyl]-2-oxo-5-oxazolidinyl]methyl]-2,2-difluoroacetamide]		0.5 (≈ 1.14 µM)
CC(=O)NC[C@H]1CN(c2ccc(C3C=CS(=O)(=O)CC3)c(F)c2)C(=O)O1 (stereo partly drawn) [Example 5, N-[[(5S)-3-[4-(3,4-Dihydro-1,1-dioxido-2H-thiopyran-4-yl)-3-fluorophenyl]-2-oxo-5-oxazolidinyl]methyl]acetamide]		0.25 (≈ 0.654 µM)
O=C(NC[C@H]1CN(c2ccc(N3C=CS(=O)(=O)CC3)cc2)C(=O)O1)C(Cl)Cl [Example 25, 2,2-dichloro-N-[[(5S)-3-[4-(2,3-dihydro-1,1-dioxido-4H-1,4-thiazin-4-yl)phenyl]-2-oxo-5-oxazolidinyl]methyl]acetamide]		1 (≈ 2.3 µM)

Further molecules by falling MIC [1], results first:

melting point [°C]	MIC [1] [µg/mL]	Structure (SMILES)
196 to 197	2 (≈ 5.26 µM)	COC(=O)NC[C@H]1CN(c2ccc(C3C=CS(=O)(=O)CC3)cc2)C(=O)O1 (stereo partly drawn) [Example 19, (S)-[[3-[4-(3,4-dihydro-1,1-dioxido-2H-thiopyran-4-yl)phenyl]-2-oxo-5-oxazolidinyl]methyl]carbamic acid, methyl ester]
	2 (≈ 4.95 µM)	O=C1O[C@@H](CNC(=O)C(F)(F)F)CN1c1ccc(C2C=CSCC2)c(F)c1 (stereo partly drawn) [Example 1, N-[[(5S)-3-[4-(3,4-dihydro-2H-thiopyran-4-yl)-3-fluorophenyl]-2-oxo-5-oxazolidinyl]methyl]-2,2,2-trifluoroacetamide]
	1 (≈ 2.29 µM)	O=C(NC[C@H]1CN(c2cc(F)c(C3C=CS(=O)(=O)CC3)c(F)c2)C(=O)O1)C(F)F (stereo partly drawn) [Example 30, N-({(5S)-3-[4-(1,1-dioxido-3,4-dihydro-2H-thiopyran-4-yl)-3,5-difluorophenyl]-2-oxo-1,3-oxazolidin-5-yl}methyl)-2,2-difluoroacetamide]
	1 (≈ 2.85 µM)	CC(=O)NC[C@H]1CN(c2ccc(C3C=CSCC3)c(F)c2)C(=O)O1 (stereo partly drawn) [Example 2, N-[[(5S)-3-[4-(3,4-dihydro-2H-thiopyran-4-yl)-3-fluorophenyl]-2-oxo-5-oxazolidinyl]methyl]acetamide]
187 to 189	1 (≈ 2.74 µM)	CC(=O)NC[C@H]1CN(c2ccc(C3C=CS(=O)(=O)CC3)cc2)C(=O)O1 (stereo partly drawn) [Example 14, N-[[(5S)-3-[4-(3,4-dihydro-1,1-dioxido-2H-thiopyran-4-yl)phenyl]-2-oxo-5-oxazolidinyl]methyl]acetamide]
	1 (≈ 2.49 µM)	O=C(NC[C@H]1CN(c2ccc(N3C=CS(=O)(=O)CC3)cc2)C(=O)O1)C(F)F [Example 26, N-[[(5S)-3-[4-(2,3-dihydro-1,1-dioxido-4H-1,4-thiazin-4-yl)phenyl]-2-oxo-5-oxazolidinyl]methyl]-2,2-difluoroacetamide]
	1 (≈ 2.5 µM)	CC(=O)NC[C@H]1CN(c2cc(F)c(C3C=CS(=O)(=O)CC3)c(F)c2)C(=O)O1 (stereo partly drawn) [Example 20, N-[[(5S)-3-[4-(3,4-dihydro-1,1-dioxido-2H-thiopyran-4-yl)-3,5-difluorophenyl]-2-oxo-5-oxazolidinyl]methyl]acetamide]
	0.5 (≈ 1.2 µM)	O=C(NC[C@H]1CN(c2ccc(C3C=CS(=O)(=O)CC3)c(F)c2)C(=O)O1)C(F)F (stereo partly drawn) [Example 9, N-[[(5S)-3-[4-(3,4-dihydro-1,1-dioxido-2H-thiopyran-4-yl)-3-fluorophenyl]-2-oxo-5-oxazolidinyl]methyl]-2,2-difluoroacetamide]
	0.5 (≈ 1.36 µM)	CC(=S)NC[C@H]1CN(c2ccc(C3C=CSCC3)c(F)c2)C(=O)O1 (stereo partly drawn) [Example 3, N-[[(5S)-3-[4-(3,4-dihydro-2H-thiopyran-4-yl)-3-fluorophenyl]-2-oxo-5-oxazolidinyl]methyl]ethanethioamide]
	0.5 (≈ 1.19 µM)	O=C(NC[C@H]1CN(c2ccc(N3C=CS(=O)(=O)CC3)c(F)c2)C(=O)O1)C(F)F [Example 23, N-[[(5S)-3-[4-(2,3-dihydro-1,1-dioxido-4H-1,4-thiazin-4-yl)-3-fluorophenyl]-2-oxo-5-oxazolidinyl]methyl]-2,2-difluoroacetamide]
135 to 136	0.5 (≈ 1.25 µM)	O=C(NC[C@H]1CN(c2ccc(C3C=CS(=O)(=O)CC3)cc2)C(=O)O1)C(F)F (stereo partly drawn) [Example 15, N-[[(5S)-3-[4-(3,4-dihydro-1,1-dioxido-2H-thiopyran-4-yl)phenyl]-2-oxo-5-oxazolidinyl]methyl]-2,2-difluoroacetamide]
	0.5 (≈ 1.06 µM)	O=C(NC[C@H]1CN(c2cc(F)c(N3C=CS(=O)(=O)CC3)c(F)c2)C(=O)O1)C(Cl)Cl [Example 28, 2,2-dichloro-N-[[(5S)-3-[4-(2,3-dihydro-1,1-dioxido-4H-1,4-thiazin-4-yl)-3,5-difluorophenyl]-2-oxo-5-oxazolidinyl]methyl]acetamide]
	0.25 (≈ 0.575 µM)	O=C1O[C@@H](CNC(=S)C(F)F)CN1c1ccc(C2C=CS(=O)(=O)CC2)c(F)c1 (stereo partly drawn) [Example 10, N-[[(5S)-3-[4-(3,4-dihydro-1,1-dioxido-2H-thiopyran-4-yl)-3-fluorophenyl]-2-oxo-5-oxazolidinyl]methyl]-2,2-difluoroethanethioamide]
	0.25 (≈ 0.574 µM)	O=C1O[C@@H](CNC(=S)C(F)F)CN1c1ccc(N2C=CS(=O)(=O)CC2)c(F)c1 [Example 21, N-[[(5S)-3-[4-(2,3-dihydro-1,1-dioxido-4H-1,4-thiazin-4-yl)-3-fluorophenyl]-2-oxo-5-oxazolidinyl]methyl]-2,2-difluoroethanethioamide]
	0.25 (≈ 0.551 µM)	O=C1O[C@@H](CNC(=S)C(F)F)CN1c1cc(F)c(N2C=CS(=O)(=O)CC2)c(F)c1 [Example 27, N-[[(5S)-3-[4-(2,3-dihydro-1,1-dioxido-4H-1,4-thiazin-4-yl)-3,5-difluorophenyl]-2-oxo-5-oxazolidinyl]methyl]-2,2-difluoroethanethioamide]
	0.25 (≈ 0.654 µM)	CC(=S)NC[C@H]1CN(c2ccc(C3C=C[S+]([O-])CC3)c(F)c2)C(=O)O1 (stereo partly drawn) [Example 6, N-[[(5S)-3-[4-(3,4-dihydro-1-oxido-2H-thiopyran-4-yl)-3-fluorophenyl]-2-oxo-5-oxazolidinyl]methyl]ethanethioamide]
